How the values were obtained:
[1] = test system: myrosinase; test: Conversion of glucoraphanin to sulforaphane in simulated intestinal fluid (Example 5); format: biochemical, broccoli; conditions: 38° C., 0.25 to 1.00 mmol/Liter ascorbic acid, FIG. 4
Procedure: Conversion of Glucoraphanin to Sulforaphane in the Presence of Simulated Intestinal Fluid. Simulated Intestinal Fluid (SW) powder, a commercially supplied concentrate closely approximating the human intestinal content in terms of composition, pH and ionic strength, was used. The experiment utilized a USP Dissolution Apparatus 2 (paddles), where into six dissolution vessels 500 mL of Simulated Intestinal Fluid was dispensed, along with 150 mg of freeze-dried broccoli sprout powder as a source of myrosinase. […] Aliquots were withdrawn every 15 minutes, and assayed for sulforaphane.

[2] = test system: HepG2 cells; test: Glutathione levels in HepG2 cells (o-phthalaldehyde fluorescence); format: cell-based, human
Procedure: The following study was conducted to determine the effect of the combination of sulforaphane and silibinin on glutathione levels. Glutathione plays an important role in the body, as it can serve as an antioxidant, detoxifier, and immunity enhancer. Decreased levels of glutathione can cause a patient to be susceptible to oxidative stress, illness, and cancer. Therefore, an increase in glutathione levels is a beneficial effect.
In the study, the human liver cancer cell line, HepG2 cells were treated with DMSO (vehicle control), sulforaphane (SFN), silibinin (Silib), or the combination of sulforaphane and silibinin, for 24 hours. Cell lysates were collected and glutathione levels were measured using o-phthalaldehyde (OPT) as a fluorescent reagent. FIG. 5 and FIG. 6 show the results of the study.
In Part 1 of the study, the effect of 0.5 μM SFN was compared to various concentrations of silibinin and to the combination of 0.5 μM SFN and silibinin at various concentrations. […] An increase in glutathione levels is a beneficial effect. The results are depicted in FIG. 5.
In Part 2 of the study, the effect of 2 μM SFN was compared to various concentrations of silibinin and to the combination of 2 μM SFN and silibinin at various concentrations. […] An increase in glutathione levels is a beneficial effect to detoxify cells. The results are depicted in FIG. 6.

[3] = test system: NAD(P)H:quinine oxidoreductase (NQO1); conditions: oral administration, mammary epithelium; cited from earlier work
[4] = test system: heme oxygenase-1 (HO-1); conditions: oral administration, mammary epithelium; cited from earlier work

Q: With O=C1O[C@H]([C@@H](O)CO)C(O)=C1O [ascorbic acid] as the compound, how does the “Yield of sulforaphane versus ascorbic acid concentration” value [1] read?
A: The value was “direct correlation between larger yield of sulforaphane and higher concentrations of ascorbic acid”.

Q: Which results are given for C[S+]([O-])CCCCN=C=S (centres unmarked) [sulforaphane, 1-isothiocyanato-4-methylsulfinylbutane]?
A: Glutathione levels compared to DMSO (vehicle) control ([2]; Part 1, 24 hours, 0.5 μM SFN, 100, 200, 300 μM Silib, FIG. 5): remained the same; Glutathione levels compared to the control ([2]; Part 2, 24 hours, 2 μM SFN, 100, 300 μM Silib, FIG. 6): remained the same

Q: With C[S+]([O-])CCCC/C(=N\OS(=O)(=O)O)S[C@@H]1O[C@H](CO)[C@@H](O)[C@H](O)[C@H]1O (stereo partly drawn) [GR, 1-S-[(1E)-5-(methylsulfinyl)-N-(sulfonatooxy)pentanimidoyl]-1-thio-β-D-glucopyranose] as the compound, how does the “Increase in NQO1 enzymatic activity” value [3] read?
A: Its value is 3 fold.

Q: And the “Elevated immunostaining of HO-1 enzyme” value [4]?
A: The value was 4 fold.
